Laboratory results from the CheMixHub viscosity set.
± gives the uncertainty stated by the source.

Test: xn = mol fraction of the nth substance listed

c1ccc2c(c1)CCCC2 + CCCCCCCCCC
viscosity [mPa·s]
Settings | 293.15 K | 298.15 K | 303.15 K | 308.15 K | 313.15 K | 318.15 K | 323.15 K
100 kPa, x1 = 0.0986 | 0.954 ± 0.02 | 0.886 ± 0.019 | 0.827 ± 0.018 | 0.774 ± 0.016 | 0.727 ± 0.015 | 0.685 ± 0.015 | 0.647 ± 0.014
100 kPa, x1 = 0.2025 | 1.008 ± 0.021 | 0.936 ± 0.02 | 0.871 ± 0.019 | 0.814 ± 0.017 | 0.763 ± 0.016 | 0.718 ± 0.015 | 0.678 ± 0.014
100 kPa, x1 = 0.2995 | 1.065 ± 0.023 | 0.987 ± 0.021 | 0.919 ± 0.02 | 0.859 ± 0.018 | 0.805 ± 0.017 | 0.757 ± 0.016 | 0.713 ± 0.015
100 kPa, x1 = 0.3994 | 1.133 ± 0.024 | 1.043 ± 0.022 | 0.973 ± 0.021 | 0.908 ± 0.019 | 0.85 ± 0.018 | 0.798 ± 0.017 | 0.752 ± 0.016
100 kPa, x1 = 0.5005 | 1.221 ± 0.026 | 1.127 ± 0.024 | 1.045 ± 0.022 | 0.973 ± 0.021 | 0.909 ± 0.019 | 0.852 ± 0.018 | 0.802 ± 0.017
100 kPa, x1 = 0.5989 | 1.329 ± 0.028 | 1.224 ± 0.026 | 1.132 ± 0.024 | 1.047 ± 0.022 | 0.977 ± 0.021 | 0.916 ± 0.019 | 0.859 ± 0.018
100 kPa, x1 = 0.6999 | 1.468 ± 0.031 | 1.347 ± 0.029 | 1.243 ± 0.026 | 1.151 ± 0.024 | 1.07 ± 0.023 | 0.999 ± 0.021 | 0.936 ± 0.02
100 kPa, x1 = 0.7987 | 1.644 ± 0.035 | 1.495 ± 0.032 | 1.382 ± 0.029 | 1.276 ± 0.027 | 1.182 ± 0.025 | 1.101 ± 0.023 | 1.028 ± 0.022
100 kPa, x1 = 0.9002 | 1.878 ± 0.04 | 1.708 ± 0.036 | 1.564 ± 0.033 | 1.437 ± 0.031 | 1.326 ± 0.028 | 1.23 ± 0.026 | 1.147 ± 0.024
101 kPa, x2 = 0.1001 | 1.873 ± 0.014 | 1.703 ± 0.013 | 1.56 ± 0.012 | – | 1.328 ± 0.01 | – | –
101 kPa, x2 = 0.2044 | 1.629 ± 0.012 | 1.486 ± 0.011 | 1.368 ± 0.011 | – | 1.175 ± 0.01 | – | –
101 kPa, x2 = 0.2961 | 1.471 ± 0.011 | 1.349 ± 0.011 | 1.245 ± 0.01 | – | 1.073 ± 0.009 | – | –
101 kPa, x2 = 0.3964 | 1.345 ± 0.011 | 1.238 ± 0.01 | 1.148 ± 0.009 | – | 0.995 ± 0.009 | – | –
101 kPa, x2 = 0.4994 | 1.226 ± 0.01 | 1.134 ± 0.009 | 1.053 ± 0.009 | – | 0.917 ± 0.008 | – | –
101 kPa, x2 = 0.6017 | 1.143 ± 0.009 | 1.06 ± 0.009 | 0.986 ± 0.009 | – | 0.862 ± 0.008 | – | –
101 kPa, x2 = 0.6964 | 1.071 ± 0.009 | 0.993 ± 0.009 | 0.925 ± 0.008 | – | 0.809 ± 0.008 | – | –
101 kPa, x2 = 0.7971 | 1.015 ± 0.009 | 0.942 ± 0.008 | 0.878 ± 0.008 | – | 0.77 ± 0.008 | – | –
101 kPa, x2 = 0.8894 | 0.968 ± 0.008 | 0.9 ± 0.008 | 0.838 ± 0.008 | – | 0.737 ± 0.007 | – | –
